# Results: ChEMBL document CHEMBL6074684, “Structure-activity relationship study of novel evodiamine amino acid conjugates with potent anti-colorectal cancer efficacy” (Eur J Med Chem, 2025)
# Tests used:
# HT-29 = test: Antiproliferative activity against human HT-29 cells assessed as inhibition of cell growth incubated for 72 hrs by MTT assay; format: functional, cell-based; conditions: HT-29, 72 h
# HCT-116 = test: Antiproliferative activity against human […] cells assessed as inhibition of cell growth incubated for 72 hrs by MTT assay; format: functional, cell-based; conditions: HCT-116, 72 h
# LoVo = test: Antiproliferative activity against human LoVo cells assessed as inhibition of cell growth incubated for 72 hrs by MTT assay; format: functional, cell-based
# RKO = test: Antiproliferative activity against human RKO cells assessed as inhibition of cell growth incubated for 72 hrs by MTT assay; format: functional, cell-based
# HGC-27 = test: Antiproliferative activity against human HGC-27 cells assessed as inhibition of cell growth incubated for 72 hrs by MTT assay; format: functional, cell-based; conditions: HGC-27, 72 h
# MGC-803 = test: Antiproliferative activity against human MGC-803 cells assessed as inhibition of cell growth incubated for 72 hrs by MTT assay; format: functional, cell-based; conditions: MGC-803, 72 h
# SGC-7901 = test: Antiproliferative activity against human SGC-7901 cells assessed as inhibition of cell growth incubated for 72 hrs by MTT assay; format: functional, cell-based; conditions: SGC-7901, 72 h
# Huh-7 = test: Antiproliferative activity against human Huh-7 cells assessed as inhibition of cell growth incubated for 72 hrs by MTT assay; format: functional, cell-based; conditions: Huh-7, 72 h
# SK-HEP1 = test: Antiproliferative activity against human SK-HEP1 cells assessed as inhibition of cell growth incubated for 72 hrs by MTT assay; format: functional, cell-based; conditions: SK-HEP1, 72 h
# MCF7 = test: Antiproliferative activity against human MCF7 cells assessed as inhibition of cell growth incubated for 72 hrs by MTT assay; format: functional, cell-based; conditions: MCF7, 72 h
# [1] = biological target: T1, DNA topoisomerase 1 (Homo sapiens) (UniProt P11387); test: Inhibition of topoisomerase 1 (unknown origin) mediated DNA relaxation at 100 uM preincubated for 20 mins followed by pBR322 plasmid DNA addition and measured after 15 mins by red nucleic acid gel staining based agarose gel electrophoresis; conditions: time 35.0 min
# T1 sequence (whole entry): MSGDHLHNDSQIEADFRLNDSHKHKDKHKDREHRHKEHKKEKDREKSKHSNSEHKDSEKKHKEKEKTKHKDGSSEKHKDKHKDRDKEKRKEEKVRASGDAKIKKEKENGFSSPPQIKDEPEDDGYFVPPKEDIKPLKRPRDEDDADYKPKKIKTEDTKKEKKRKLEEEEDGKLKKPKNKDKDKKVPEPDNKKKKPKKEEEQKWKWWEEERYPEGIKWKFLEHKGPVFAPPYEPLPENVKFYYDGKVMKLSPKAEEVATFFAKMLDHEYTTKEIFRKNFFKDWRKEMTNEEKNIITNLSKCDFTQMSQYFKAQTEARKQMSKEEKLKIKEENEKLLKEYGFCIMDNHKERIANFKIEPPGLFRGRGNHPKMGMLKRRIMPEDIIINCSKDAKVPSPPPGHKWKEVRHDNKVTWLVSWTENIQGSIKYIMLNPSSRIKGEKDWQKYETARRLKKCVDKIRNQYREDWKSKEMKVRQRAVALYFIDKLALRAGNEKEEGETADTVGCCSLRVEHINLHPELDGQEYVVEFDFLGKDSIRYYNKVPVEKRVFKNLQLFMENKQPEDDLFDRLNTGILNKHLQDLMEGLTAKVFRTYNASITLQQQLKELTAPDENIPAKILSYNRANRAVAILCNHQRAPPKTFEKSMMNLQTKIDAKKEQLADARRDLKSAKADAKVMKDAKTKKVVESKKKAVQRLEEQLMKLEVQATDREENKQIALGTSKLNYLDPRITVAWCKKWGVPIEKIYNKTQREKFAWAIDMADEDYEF
IC50 (HT-29),IC50 (HCT-116),IC50 (LoVo),IC50 (MGC-803),IC50 (SGC-7901),IC50 (Huh-7),IC50 (SK-HEP1),IC50 (MCF7),inhibition [1],Compound,IC50 (RKO),IC50 (HGC-27)
430 nM,360 nM,230 nM,220 nM,490 nM,200 nM,770 nM,950 nM,–,CC(C)(C)OC(=O)N[C@@H](Cc1ccccc1)C(=O)Oc1ccc2[nH]c3c(c2c1)CCN1C(=O)c2cc(F)ccc2N(c2cccc(F)c2)[C@H]31,90 nM,280 nM
30500 nM,26200 nM,15700 nM,15900 nM,47700 nM,11800 nM,37800 nM,47300 nM,–,CC(C)(C)OC(=O)N[C@@H](Cc1ccccc1)C(=O)Oc1ccc2[nH]c3c(c2c1)CCN1C(=O)c2cc(F)ccc2N(c2cccc(F)c2)[C@@H]31,19500 nM,22700 nM
26800 nM,19200 nM,12700 nM,15100 nM,59600 nM,11500 nM,37000 nM,24600 nM,Active; Better Activity Than Evodiamine,CC(C)(C)OC(=O)N[C@@H](CCC(N)=O)C(=O)Oc1ccc2[nH]c3c(c2c1)CCN1C(=O)c2cc(F)ccc2N(c2cccc(F)c2)[C@@H]31,9300 nM,18800 nM
380 nM,400 nM,190 nM,410 nM,540 nM,300 nM,650 nM,830 nM,–,CC(C)(C)OC(=O)N[C@@H](COCc1ccccc1)C(=O)Oc1ccc2[nH]c3c(c2c1)CCN1C(=O)c2cc(F)ccc2N(c2cccc(F)c2)[C@H]31,110 nM,320 nM
260 nM,200 nM,170 nM,210 nM,480 nM,160 nM,1390 nM,1190 nM,–,CC(C)(C)OC(=O)NCC(=O)Oc1ccc2[nH]c3c(c2c1)CCN1C(=O)c2cc(F)ccc2N(c2cccc(F)c2)[C@H]31,95 nM,200 nM
18600 nM,18200 nM,19700 nM,11300 nM,40200 nM,11700 nM,26600 nM,28500 nM,–,C[C@H](NC(=O)OC(C)(C)C)C(=O)Oc1ccc2[nH]c3c(c2c1)CCN1C(=O)c2cc(F)ccc2N(c2cccc(F)c2)[C@@H]31,15900 nM,20300 nM
340 nM,430 nM,290 nM,380 nM,810 nM,280 nM,1150 nM,980 nM,–,CC(C)[C@H](NC(=O)OC(C)(C)C)C(=O)Oc1ccc2[nH]c3c(c2c1)CCN1C(=O)c2cc(F)ccc2N(c2cccc(F)c2)[C@H]31,200 nM,420 nM
